# Article PMC12028158, “Synthesis and In Vitro Evaluation of the Anticancer Effect of Novel Phosphonium Vindoline Derivatives” (International Journal of Molecular Sciences, 2025)
# Experiments:
# [1] = tested on: non-tumor CHO cells; assay: CellTiter-Glo Luminescent Cell Viability Assay; type: cell-based, Chinese hamster; conditions: for IC50: Cricetulus griseus, 48 h treatment, read-out: IC50 (estimated)
# Description: Conjugates 9b and 9e were selected based on their antitumor effects to be tested on non-tumor CHO cells in the CellTiter-Glo Luminescent Cell Viability Assay to investigate their potential selectivity for cancer cells. Following a 48 h treatment with the conjugates in the 0.10–10 µM concentration range, a concentration-dependent decrease in the luminescent signal was observed, indirectly representing the ATP production of living cells as an indicator of cell viability.
# Conjugates 9b and 9e were dissolved in DMSO in 10 mM stock solutions and stored frozen until use. CHO cells were cultured in complete Dulbecco’s Modified Eagle’s Medium (DMEM, low glucose (1 g/L) supplemented with 10% fetal bovine serum, 1% Gibco GlutaMAX-I (100×) solution, 1% Gibco MEM non-essential amino acid solution (100×), and 0.1% penicillin–streptomycin mixture). The CellTiter-Glo Luminescent Cell Viability Assay (Promega Corporation, Madison, WI, USA) was performed as previously described. Cells were grown under standard cell culture conditions (37 °C, 5% CO2) and passaged at 70–80% confluency. According to the manufacturer’s protocol, CHO cells were seeded to opaque 96-well culture plates (5000 cells/100 µL complete DMEM/well) and the side rows and columns of the plate were filled with sterile phosphate-buffer saline to avoid artifacts. […] The luminescent signal was measured for each assay well with an EnSpire AlphaLisa microplate reader (Perkin Elmer, Inc., Waltham, MA, USA). […] Estimated IC50 values were calculated using non-linear regression by fitting a sigmoidal dose-response curve to the data points (log(inhibitor) vs. normalized response, variable slope, and least squares fit).
# Statistical analysis (ANOVA) and estimation of IC50 values were performed in GraphPad Prism 8.0.1 (GraphPad, La Jolla, CA, USA). Estimated IC50 values were calculated using non-linear regression by fitting a sigmoidal dose-response curve to the data points (log(inhibitor) vs. normalized response, variable slope, least squares fit).
# [2] = tested on: A2780 cells; assay: Wound healing migration assay; type: cell-based, human; conditions: A2780, sub-inhibitory concentrations (0.5 or 1.0 µM), 24 and 48 h
# Description: The antimigratory properties of compound 9g were investigated using the in vitro wound healing assay against the ovarian cancer cell line A2780.
# The effect of compound 9g on the migration of A2780 cells was assessed using a wound-healing assay. A2780 cells were trypsinized and seeded into specialized wound assay chambers (ibidi GmbH, Martinsried, Germany) at a density of 80,000 cells/insert and the plate was incubated under standard conditions to allow proper attachment. After incubation, the inserts were carefully removed and the wells were washed twice with PBS to eliminate non-adherent cells and debris. The cells were subsequently treated with […] at 0.5 or 1.0 µM in fresh medium containing 2% FBS. The migration of cells toward the wound site was visualized using a phase-contrast inverted microscope (Nikon Instruments Europe, Amstelveen, The Netherlands) and images were captured with a CCD camera (QImaging MicroPublisher Color RTV5.0 Teledyne Photometrics, Tucson, AZ, USA). The percentage of cell migration was calculated at different time intervals (0, 24, and 48 h) by measuring the cell-free area in treated samples against untreated controls using ImageJ software 1.54d (National Institutes of Health, Bethesda, MD, USA). The experiments were conducted twice with at least three parallel samples.
# [3] = tested on: NIH/3T3 (fibroblast); assay: MTT antiproliferative assay; type: cell-based; conditions: Mus musculus, 72 h
# Description: The antiproliferative properties of the tested compounds were additionally determined using the MTT assay against a panel of human adherent cancer cell lines isolated from breast (MCF-7 and MDA-MB-231), cervical (HeLa and SiHa), and ovarian (A2780) tumors and also on the NIH/3T3 fibroblast cell line (Table 3). IC50 values were calculated from a wider concentration range (0.1–30 μM) when higher than 50% cell growth inhibition was obtained at 10 μM (Table 4). Cisplatin was used as a reference compound. […] The noncancerous fibroblast cell line NIH/3T3 was used to gather preliminary data regarding the cancer selectivity of vindolin derivatives. […] The tumor selectivity of compound 9g, expressed as the ratio of IC50 on cancer cells and fibroblasts, is substantially higher than that of cisplatin (Table 4).
# The antiproliferative effects of the prepared derivatives were evaluated in vitro using the MTT assay against a panel of human adherent cancer cell lines, including breast (MDA-MB-231, MCF-7), cervical (SiHa, HeLa), and ovarian (A2780) cancer cells. The noncancerous fibroblast cell line NIH/3T3 was included to obtain data concerning the tumor selectivity of the test substances. All cell lines were sourced from the European Collection of Cell Cultures (Salisbury, UK), except for SiHa (American Tissue Culture Collection (Manassas, VA, USA). All cell lines were maintained in Eagle’s Minimal Essential Medium (EMEM) supplemented with 10% fetal bovine serum (FBS), 1% non-essential amino acids, and a mixture of penicillin, streptomycin, and amphotericin B. The cells were maintained in a humidified atmosphere containing 5% CO2 at 37 °C. The media and the cell culture supplements were procured from Capricorn Scientific Ltd. (Ebsdorfergrund, Germany). Cells were seeded into 96-well microplates at 5000/well and, the next day, treated with vindoline derivatives at two concentrations (10 or 30 μM) for 72 h under cell culturing conditions. […] When higher than 50% cell growth inhibition was observed, the assay was repeated using a wide concentration range (0.1–30 μM). The IC50 values were calculated using GraphPad Prism software 10.3.1 (GraphPad Software, San Diego, CA, USA). Two independent experiments were performed with at least five replicates per condition.
# [4] = tested on: 60 human tumor cell lines (NCI60); set-up: method as in PMID 39063170; conditions: previous work; cited from earlier work
compound,measurement,setting,value
CC[C@]12C=CCN3CC[C@@]4(c5ccc(OC)cc5N(C)[C@H]4[C@@](O)(C(=O)OC)[C@@H]1OC(=O)CCC[P+](c1ccc(OC)cc1)(c1ccc(OC)cc1)c1ccc(OC)cc1)[C@@H]32 [9b],IC50,[1],2.98 µM
CC[C@]12C=CCN3CC[C@@]4(c5ccc(OC)cc5N(C)[C@H]4[C@@](O)(C(=O)OC)[C@@H]1OC(=O)CCC[P+](c1cc(C)c(OC)c(C)c1)(c1cc(C)c(OC)c(C)c1)c1cc(C)c(OC)c(C)c1)[C@@H]32 [9e],decrease in viability,"[1]; 1.0 µM, 48 h",26.4 ± 5.8%
same,IC50,[1],1.36 µM
CC[C@]12C=CCN3CC[C@@]4(c5ccc(OC)cc5N(C)[C@H]4[C@@](O)(C(=O)OC)[C@@H]1OC(=O)CCC[P+](c1ccccc1)(c1ccccc1)c1ccccn1)[C@@H]32 [9g],cell migration,[2],concentration- and duration-dependent reduction in cell migration
same,inhibition at 10 µM,"[3]; NIH3T3, 10 μM, read-out: Growth Inhibition (%) ± SEM",34.6 ± 1.11%
same,inhibition at 30 µM,"[3]; NIH3T3, 30 μM, read-out: Growth Inhibition (%) ± SEM (converted)",77.2%
same,IC50,"[3]; NIH3T3, MTT, read-out: IC50 Value (μM) ± SEM",14.37 ± 0.02 µM
"CCC12C=CCN3CC[C@@]4(c5ccc(OC)cc5N(C)[C@H]4[C@@](O)(C(=O)OC)[C@@H]1OC(C)=O)[C@@H]32 (some centres unmarked) [compound 2, vindoline]",antiproliferative effects (in words),[4],do not exert antiproliferative effects
